Values of other authors as cited in patent publication US6410588B1, “Use of cannabinoids as anti-inflammatory agents” (priority 1998, dated 2002).

Tests used:
[1] = test system: IFNγ; settings: cited from earlier work
[2] = test system: nitric oxide (NO); settings: macrophages activated by LPS and IFNγ; cited from earlier work
[3] = test system: antibody formation against sheep red blood cells; settings: studies in mice; cited from earlier work

In the case of `CCCCCc1cc(O)c2c(c1)OC(C)(C)C1CCC(C)=CC21` (stereo not shown) [THC, Delta-9-tetrahydrocannabinoid, reference compound], the IFNγ synthesis ([1]; high concentrations (5-24 μg/ml)) is listed as “completely blocked IFNγ synthesis”, the IFNγ production ([1]; low concentrations) is listed as “increase IFNγ production” and the “nitric oxide (NO) production” value [2] is listed as “inhibited”. For the same molecule, the “antibody formation against sheep red blood cells” value [3] was “suppresses antibody formation”.
